# Columns and labels:
# [1] = system: A431 cells [human epidermoid carcinoma, overexpressing HER1 (EGFR, ErbB1)]; assay: In vitro tumor cell proliferation assay (Cell Titer-Glo luminescent cell viability), A431 cells; assay type: cell-based; conditions: A-431, 72 h, 72 hours of drug exposure, Cell Titer-Glo readout, read-out: IC50, anti-proliferative activity in A431 cells
# [2] = system: BT474 [human breast carcinoma, overexpressing HER2 (ErbB2)]; assay: In vitro tumor cell proliferation assay (Cell Titer-Glo luminescent cell viability), BT474 cells; assay type: cell-based; conditions: BT-474, 72 h, 72 hours of drug exposure, Cell Titer-Glo readout, read-out: IC50, anti-proliferative activity in BT474 cells
SMILES,IC50 [1],IC50 [2]
"CS(=O)(=O)CCNC(=O)Cc1ccc2c(c1)sc1ncnc(Nc3ccc(OCc4ccccn4)c(Cl)c3)c12 [Example 102, 2-(4-{[3-chloro-4-(pyridin-2-ylmethoxy)phenyl]amino}[1]benzothieno[2,3-d]pyrimidin-7-yl)-N-[2-(methylsulfonyl)ethyl] acetamide]",≤ 50 µM,≤ 0.5 µM
"COCCN(C)C(=O)Cc1ccc2c(c1)sc1ncnc(Nc3ccc(OCc4ccccn4)c(Cl)c3)c12 [Example 103, 2-(4-{[3-chloro-4-(pyridin-2-ylmethoxy)phenyl]amino}[1]benzothieno[2,3-d]pyrimidin-7-yl)-N-(2-methoxyethyl)-N-methylacetamide]",≤ 50 µM,≤ 5 µM
"COCCN1CCN(C(=O)Cc2ccc3c(c2)sc2ncnc(Nc4ccc(OCc5ccccn5)c(Cl)c4)c23)CC1 [Example 104, N-[3-chloro-4-(pyridin-2-ylmethoxy)phenyl]-7-{2-[4-(2-methoxyethyl)piperazin-1-yl]-2-oxoethyl}[1]benzothieno [2,3-d]pyrimidin-4-amine]",≤ 50 µM,≤ 0.5 µM
"O=C(Cc1ccc2c(c1)sc1ncnc(Nc3ccc(OCc4ccccn4)c(Cl)c3)c12)N(CCO)CCO [Example 105, 2(4-{[3-chloro-4-(pyridin-2-ylmethoxy)phenyl]amino}[1]benzothieno[2,3-d]pyrimidin-7-yl)-N,N-bis-(2-hydroxyethyl) acetamide]",≤ 50 µM,≤ 5 µM
"O=C(Cc1ccc2c(c1)sc1ncnc(Nc3ccc(OCc4ccccn4)c(Cl)c3)c12)NCCO [Example 106, 2(4-{[3-chloro-4-(pyridin-2-ylmethoxy)phenyl]amino}[1]benzothieno[2,3-d]pyrimidin-7-yl)-N-(2-hydroxyethyl)acetamide]",≤ 50 µM,≤ 5 µM
"COC[C@@H]1CCCN1C(=O)Cc1ccc2c(c1)sc1ncnc(Nc3ccc(OCc4ccccn4)c(Cl)c3)c12 [Example 107, N-[3-chloro-4-(pyridin-2-ylmethoxy)phenyl]-7-{2-[2-(methoxymethyl)pyrrolidin-1-yl]-2-oxoethyl}[1]benzothieno[2,3-d] pyrimidin-4-amine]",≤ 5 µM,≤ 5 µM
"O=C(Cc1ccc2c(c1)sc1ncnc(Nc3ccc(OCc4ccccn4)c(Cl)c3)c12)N1CCC[C@@H]1CO [Example 108, {1-[(4-{[3-chloro-4-(pyridin-2-ylmethoxy)phenyl]amino}[1]benzothieno[2,3-d]pyrimidin-7-yl)acetyl]pyrrolidin-2-yl}methanol]",≤ 5 µM,≤ 5 µM
"NS(=O)(=O)OCCc1ccc2c(c1)sc1ncnc(Nc3ccc(OCc4ccccn4)c(Cl)c3)c12 [Example 109, 2-(4-{[3-chloro-4-(pyridin-2-ylmethoxy)phenyl]amino}[1]benzothieno[2,3-d]pyrimidin-7-yl)ethyl sulfamate]",≤ 5 µM,≤ 0.5 µM
"Oc1ccc2c(c1)sc1ncnc(Nc3ccc(OCc4ccccn4)c(Cl)c3)c12 [Example 110, 4-{[3-chloro-4-(pyridin-2-ylmethoxy)phenyl]amino}[1] benzothieno[2,3-d]pyrimidin-7-ol]",≤ 50 µM,≤ 5 µM
"OC[C@@H](O)COc1ccc2c(c1)sc1ncnc(Nc3ccc(OCc4ccccn4)c(Cl)c3)c12 [Example 111, (2R)-3-[(4-{[3-chloro-4-(pyridin-2-ylmethoxy)phenyl]amino}[1]benzothieno[2,3-d]pyrimidin-7-yl)oxy]propane-1,2-diol]",≤ 50 µM,≤ 0.5 µM
"OC[C@H](O)COc1ccc2c(c1)sc1ncnc(Nc3ccc(OCc4ccccn4)c(Cl)c3)c12 [Example 112, (2S)-3-[(4-{[3-chloro-4-(pyridin-2-ylmethoxy)phenyl]amino}[1]benzothieno[2,3-d]pyrimidin-7-yl)oxy]propane-1,2-diol]",≤ 5 µM,≤ 0.5 µM
"Fc1cccc(Cn2ncc3cc(Nc4ncnc5sc6cc(Br)ccc6c45)ccc32)c1 [Example 113, 7-bromo-N-[1-(3-fluorobenzyl)-1H-indazol-5-yl][1]benzothieno [2,3-d]pyrimidin-4-amine]",≤ 50 µM,≤ 5 µM
"C=Cc1ccc2c(c1)sc1ncnc(Nc3ccc4c(cnn4Cc4cccc(F)c4)c3)c12 [Example 114, N-[1-(3-fluorobenzyl)-1H-indazol-5-yl]-7-vinyl[1]benzothieno[2,3-d] pyrimidin-4-amine]",≤ 50 µM,≤ 0.5 µM
"OCC(O)c1ccc2c(c1)sc1ncnc(Nc3ccc4c(cnn4Cc4cccc(F)c4)c3)c12 (stereo not drawn) [Example 115, 1-(4-{[1-(3-fluorobenzyl)-1H-indazol-5-yl]amino}[1]benzothieno [2,3-d]pyrimidin-7-yl)ethane-1,2-diol]",≤ 5 µM,≤ 0.5 µM
"OC[C@@H](O)c1ccc2c(c1)sc1ncnc(Nc3ccc4c(cnn4Cc4cccc(F)c4)c3)c12 [Example 116, (1S)-1-(4-{[1-(3-fluorobenzyl)-1H-indazol-5-yl]amino}[1]benzothieno [2,3-d]pyrimidin-7-yl)ethane-1,2-diol]",≤ 5 µM,≤ 0.5 µM
"OC[C@H](O)c1ccc2c(c1)sc1ncnc(Nc3ccc4c(cnn4Cc4cccc(F)c4)c3)c12 [Example 117, (1R)-1-(4-{[1-(3-fluorobenzyl)-1H-indazol-5-yl]amino}[1]benzothieno [2,3-d]pyrimidin-7-yl)ethane-1,2-diol]",≤ 5 µM,≤ 0.5 µM
"CCOC(=O)C(C(=O)OCC)c1ccc2c(c1)sc1ncnc(Nc3ccc4c(cnn4Cc4cccc(F)c4)c3)c12 [Example 118, diethyl (4-{[1-(3-fluorobenzyl)-1H-indazol-5-yl]amino}[1]benzothieno [2,3-d]pyrimidin-7-yl)malonate]",≤ 50 µM,≤ 5 µM
"Fc1cccc(Cn2ncc3cc(Nc4ncnc5sc6cc(N7CCNCC7)ccc6c45)ccc32)c1 [Example 119, N-[1-(3-fluorobenzyl)-1H-indazol-5-yl]-7-piperazin-1-yl[1]benzothieno [2,3-d]pyrimidin-4-amine]",≤ 5 µM,≤ 0.5 µM
"Fc1cccc(Cn2ncc3cc(Nc4ncnc5sc6cc(N7CCOCC7)ccc6c45)ccc32)c1 [Example 120, N-[1-(3-fluorobenzyl)-1H-indazol-5-yl]-7-morpholin-4-yl[1] benzothieno[2,3-d]pyrimidin-4-amine]",≤ 50 µM,≤ 0.5 µM
"O=C(O)Cc1ccc2c(c1)sc1ncnc(Nc3ccc4c(cnn4Cc4cccc(F)c4)c3)c12 [Example 121, (4-{[1-(3-fluorobenzyl)-1H-indazol-5-yl]amino}[1]benzothieno[2,3-d]pyrimidin-7-yl)acetic acid]",≤ 50 µM,≤ 5 µM
"CS(=O)(=O)CCNC(=O)Cc1ccc2c(c1)sc1ncnc(Nc3ccc4c(cnn4Cc4cccc(F)c4)c3)c12 [Example 122, 2-(4-{[1-(3-fluorobenzyl)-1H-indazol-5-yl]amino}[1]benzothieno[2,3-d]pyrimidin-7-yl)-N-[2-(methylsulfonyl)ethyl] acetamide]",≤ 5 µM,≤ 0.5 µM
"O=C(Cc1ccc2c(c1)sc1ncnc(Nc3ccc4c(cnn4Cc4cccc(F)c4)c3)c12)NC1CN2CCC1CC2 (stereo not drawn) [Example 123, N-1-azabicyclo[2.2.2]oct-3-yl-2-(4-{[1-(3-fluorobenzyl)-1H-indazol-5-yl]amino}[1]benzothieno [2,3-d]pyrimidin-7-yl)acetamide]",≤ 5 µM,≤ 0.5 µM
"CN1CCN(C(=O)Cc2ccc3c(c2)sc2ncnc(Nc4ccc5c(cnn5Cc5cccc(F)c5)c4)c23)CC1 [Example 124, N-[1-(3-fluorobenzyl)-1H-indazol-5-yl]-7-[2-(4-methylpiperazin-1-yl)-2-oxoethyl][1]benzothieno[2,3-d] pyrimidin-4-amine]",≤ 5 µM,≤ 0.5 µM
"CN(C)[C@H]1CCN(C(=O)Cc2ccc3c(c2)sc2ncnc(Nc4ccc5c(cnn5Cc5cccc(F)c5)c4)c23)C1 [Example 125, 7-{2-[3-(dimethylamino)pyrrolidin-1-yl]-2-oxoethyl}-N-[1-(3-fluorobenzyl)-1H-indazol-5-yl] [1]benzothieno[2,3-d]pyrimidin-4-amine]",≤ 5 µM,≤ 0.5 µM
"CN(C)CCNC(=O)Cc1ccc2c(c1)sc1ncnc(Nc3ccc4c(cnn4Cc4cccc(F)c4)c3)c12 [Example 126, N-[2-(dimethylamino)ethyl]-2-(4-{[1-(3-fluorobenzyl)-1H-indazol-5-yl]amino}[1]benzothieno[2,3-d]pyrimidin-7-yl)acetamide]",≤ 5 µM,≤ 0.5 µM
"OCCc1ccc2c(c1)sc1ncnc(Nc3ccc4c(cnn4Cc4cccc(F)c4)c3)c12 [Example 127, 2-(4-{[1-(3-fluorobenzyl)-1H-indazol-5-yl]amino}[1]benzothieno [2,3-d]pyrimidin-7-yl)ethanol]",≤ 5 µM,≤ 0.5 µM
"CN1CCN(CCc2ccc3c(c2)sc2ncnc(Nc4ccc5c(cnn5Cc5cccc(F)c5)c4)c23)CC1 [Example 128, N-[1-(3-fluorobenzyl)-1H-indazol-5-yl]-7-[2-(4-methylpiperazin-1-yl)ethyl][1]benzothieno[2,3-d] pyrimidin-4-amine]",≤ 5 µM,≤ 0.5 µM
"Fc1cccc(Cn2ncc3cc(Nc4ncnc5sc6cc(CCN7CCOCC7)ccc6c45)ccc32)c1 [Example 129, N-[1-(3-fluorobenzyl)-1H-indazol-5-yl]-7-(2-morpholin-4-ylethyl) [1]benzothieno[2,3-d]pyrimidin-4-amine]",≤ 5 µM,≤ 0.5 µM
"C=Cc1ccc2c(c1)sc1ncnc(Nc3ccc4c(cnn4Cc4ccccn4)c3)c12 [Example 130, N-[1-(pyridin-2-ylmethyl)-1H-indazol-5-yl]-7-vinyl[1] benzothieno[2,3-d]pyrimidin-4-amine]",≤ 50 µM,≤ 0.5 µM
"OCC(O)c1ccc2c(c1)sc1ncnc(Nc3ccc4c(cnn4Cc4ccccn4)c3)c12 (stereo not drawn) [Example 131, 1-(4-{[1-(pyridin-2-ylmethyl)-1H-indazol-5-yl]amino}[1]benzothieno [2,3-d]pyrimidin-7-yl)ethane-1,2-diol]",≤ 50 µM,≤ 0.5 µM
